From PMC3885546, “Structural Determinants of the 5′-Methylthioinosine Specificity of Plasmodium Purine Nucleoside Phosphorylase” (PLoS ONE, 2014)
Numbering of substitutions follows the chain as printed. Read-outs that look alike come from different tables or passages of the source.

Legend:
[1] = target: T1, PfPNP Met183Ala (Plasmodium falciparum, UniProt Q8I3X4, M183A); assay: Substrate kinetics, coupled assay; type: biochemical; set-up: key: (-): Activity not detected under the experimental conditions; details: substrate = label
T1 construct: made in house; host or cells: Escherichia coli Top 10
T1 sequence (Q8I3X4 1-245 M183A): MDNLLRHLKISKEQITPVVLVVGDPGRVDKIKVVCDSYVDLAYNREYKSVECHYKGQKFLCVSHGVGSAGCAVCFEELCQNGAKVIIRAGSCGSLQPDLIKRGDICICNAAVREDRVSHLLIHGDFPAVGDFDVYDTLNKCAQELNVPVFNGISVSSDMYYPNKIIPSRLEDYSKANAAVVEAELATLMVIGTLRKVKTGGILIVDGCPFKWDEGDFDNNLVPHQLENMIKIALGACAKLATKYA
Protocol: (§1) Kinetic assays were completed in 50 mM KH2PO4 at pH 7.4 measuring phosphorylysis of inosine or MTI by PNP in a coupled reaction with 60 milliunits/ml xanthine oxidase to convert hypoxanthine to uric acid. Formation of uric acid was measured at 293 nm wavelength (E293 = 12.9 mM^−1 cm^−1), [20]. In cases where activity for MTI was low, increased protein concentration (10 µg/ml) was used to check enzyme function. Assays were performed with excess substrate in the presence of inhibitors. Inhibition studies measured both initial (Ki) and slow onset inhibition (Ki*) for inhibitors. The initial onset inhibition was analyzed by using the following equation: ν ο = (k cat×S)/(K m(1+I/Ki)+S), ν ο is the steady state rate, k cat catalytic rate, S is substrate concentration, Km is Michealis constant for inosine, I is inhibitor concentration, and Ki is the equilibrium dissociation constant.

[2] = target: T2, PfPNP Arg45Ala (Plasmodium falciparum, UniProt Q8I3X4, R45A); assay: Substrate kinetics, coupled assay; type: biochemical; set-up: key: (-): Activity not detected under the experimental conditions; details: substrate = label
T2 construct: made in house; host or cells: Escherichia coli Top 10
T2 sequence (Q8I3X4 1-245 R45A): T1 sequence (Q8I3X4 1-245 M183A) with R45A, A183M
Protocol: as §1

[3] = target: T3, PfPNP Val73Phe (Plasmodium falciparum, UniProt Q8I3X4, V73F); assay: Substrate kinetics, coupled assay; type: biochemical; set-up: key: (-): Activity not detected under the experimental conditions; details: substrate = label
T3 construct: made in house; host or cells: Escherichia coli Top 10
T3 sequence (Q8I3X4 1-245 V73F): T1 sequence (Q8I3X4 1-245 M183A) with V73F, A183M
Protocol: as §1

[4] = target: T4, PfPNP Asp206Ala (Plasmodium falciparum, UniProt Q8I3X4, D206A); assay: Substrate kinetics, coupled assay; type: biochemical; set-up: key: (-): Activity not detected under the experimental conditions; details: substrate = label
T4 construct: made in house; host or cells: Escherichia coli Top 10
T4 sequence (Q8I3X4 1-245 D206A): T1 sequence (Q8I3X4 1-245 M183A) with A183M, D206A
Protocol: as §1

[5] = system: TgPNP; details: cited from earlier work; for Km / kcat: substrate = label
[6] = target: T5, PfPNP Val66Ile/Tyr160Phe (Plasmodium falciparum, UniProt Q8I3X4, V66I/Y160F); assay: Substrate kinetics, coupled assay; type: biochemical; details: for Km / kcat: substrate = label
T5 construct: made in house; host or cells: Escherichia coli Top 10
T5 sequence (Q8I3X4 1-245 V66I/Y160F): T1 sequence (Q8I3X4 1-245 M183A) with V66I, Y160F, A183M
Protocol: as §1

[7] = target: T6, PfPNP Val66Ile (Plasmodium falciparum, UniProt Q8I3X4, V66I); assay: Substrate kinetics, coupled assay; type: biochemical
T6 construct: made in house; host or cells: Escherichia coli Top 10
T6 sequence (Q8I3X4 1-245 V66I): T1 sequence (Q8I3X4 1-245 M183A) with V66I, A183M
Protocol: as §1

[8] = target: T7, PfPNP (wild type) (Plasmodium falciparum, UniProt Q8I3X4); assay: Substrate kinetics, xanthine oxidase coupled phosphorolysis assay; type: biochemical
T7 construct: made in house; host or cells: Escherichia coli Top 10
T7 sequence (Q8I3X4 1-245): T1 sequence (Q8I3X4 1-245 M183A) with A183M
Protocol: as §1

Row | Molecule | kcat [1] | kcat [2] | Km [3] | kcat [3] | kcat/Km [3] | kcat [4] | Km ([5]; ref Chaudhary, et al. [18]) [µM] | kcat ([5]; ref Chaudhary, et al. [18]) [s⁻¹] | Km [6] [µM] | kcat [6] [s⁻¹] | kcat ([7]; substrate = label) [s⁻¹] | further results
1 | 5′-methylthioinosine | (-) | (-) | (-) | (-) | (-) | (-) | 31 ± 3 | 0.03 ± 0.00 | 11 ± 2 | 0.05 ± 0.00 | 1.2 ± 0.7 | Km [1]: (-); kcat/Km [1]: (-); kcat/Km ([1]; listed as MTI): no detectable activity; Km [2]: (-); kcat/Km [2]: (-); kcat/Km ([3]; listed as MTI): no activity; Km [4]: (-); kcat/Km [4]: (-); efficiency for MTI when compared to inosine [5]: < 0.5%; kcat ([8]; substrate = label): 0.83 ± 0.03 s⁻¹; Km ([8]; substrate = label, 50 mM KH2PO4 pH 7.4, mean ± SD): 8.8 ± 0.2 µM
2 | OC[C@H]1O[C@@H](n2cnc3c(O)ncnc32)[C@H](O)[C@@H]1O [Inosine, inosine] | 0.4 ± 0.3 s⁻¹ | 0.05 ± 0.03 s⁻¹ | (-) | (-) | (-) | 0.04 ± 0.01 s⁻¹ | 13 ± 1 | 2.6 ± 0.0 | 6.2 ± 3.5 | 1.2 ± 0.16 | 2.0 ± 0.2 | Km ([1]; read-out: Km): 260 ± 64 µM; Km ([2]; read-out: Km): 470 ± 291 µM; Km ([4]; read-out: Km): 63 ± 6 µM; Ino/MTI kcat/Km Ratio ([5]; ref Chaudhary, et al. [18]): 230; Ino/MTI kcat/Km Ratio [6]: 39; Ino/MTI kcat/Km Ratio [7]: 1.4; Km ([7]; substrate = label): 16 ± 4 µM; Ino/MTI kcat/Km Ratio [8]: 1.6
